According to patent US20120177797A1, “TASTE ENHANCING AGENT” (J-OIL MILLS, INC., priority 2009, published 2012):

Legend:
Type in all cases: in vivo
[1] = Sensory evaluation, intensity of saltiness in aqueous NaCl solution; settings: additive-free = 3.0, scale 1.0-5.0
[2] = Sensory evaluation whether salt usage can be reduced; settings: 10 ppm added to 0.5% aqueous NaCl solution; for Scores in sensory evaluation (taste intensity, saltiness): 0.5% NaCl solution = 3.0, scale 1.0-5.0
Experimental: (§1) All sensory evaluation of taste was performed by individuals wearing a nose clip. The evaluation was performed by groups of three individuals, and the scores were averaged.
Evaluation was conducted to find whether salt usage can be reduced by the taste enhancing effects. To a 0.5% aqueous NaCl solution was added 10 ppm n-hexanal or 10 ppm 1-octen-3-ol. Taste intensity was determined in the sensory evaluation where the taste intensity of the 0.5% NaCl solution was set to 3.0. For comparison, sensory evaluation was also performed for a 0.8% and 0.6% concentration of aqueous NaCl solution. The sensory evaluation was evaluated as follows. The results are shown in Table 5. • 1.0: Much weaker • 2.0: Weaker • 3.0: Similar • 4.0: Stronger • 5.0: Much stronger

[3] = Sensory evaluation, intensity of umami in aqueous MSG solution; settings: additive-free = 3.0, scale 1.0-5.0
[4] = Sensory evaluation, intensity of saltiness in aqueous NaCl solution; settings: additive-free = 3.0
Experimental: as §1
(§2) To a 0.2% aqueous sodium glutamate (MSG) solution (=umami), a 0.8% aqueous salt (NaCl) solution (=saltiness) and a 2% aqueous sucrose solution (=sweetness) were added 10 ppm linear aliphatic aldehydes having 3-12 carbon atoms shown in Table 1, respectively. Sensory evaluation was performed in which intensity of taste sensed when each of the aqueous solutions is introduced into the mouth is defined as “Intensity of umami” for the aqueous MSG solution, “Intensity of saltiness” for the aqueous NaCl solution and “Intensity of sweetness” for the aqueous sucrose solution. The score of aldehyde-free taste intensity was set to 3.0, and taste intensity upon addition of aldehyde was evaluated as follows. The results are shown in Table 1. • 1.0: Much weaker • 2.0: Weaker • 3.0: Similar • 4.0: Stronger • 5.0: Much Stronger
(§3) To a 0.2% aqueous sodium glutamate (MSG) solution (=umami), a 0.8% aqueous salt (NaCl) solution (=saltiness), a 2% aqueous sucrose solution (=sweetness) were added 10 ppm linear aliphatic alcohols having 2-11 carbon atoms, respectively. Sensory evaluation was performed in which intensity of taste sensed when each of the aqueous solutions is introduced into the mouth is defined as “Intensity of umami” for the aqueous MSG solution, “Intensity of saltiness” for the aqueous NaCl solution and “Intensity of sweetness” for the aqueous sucrose solution. The score of alcohol-free taste intensity was set to 3.0, and taste intensity upon addition was evaluated as follows. The results are shown in Table 3. • 1.0: Much weaker • 2.0: Weaker • 3.0: Similar • 4.0: Stronger • 5.0: Much stronger
(§4) To a 0.2% aqueous sodium glutamate (MSG) solution (=umami), a 0.8% aqueous salt (NaCl) solution (=saltiness), a 2% aqueous sucrose solution (=sweetness) were added 1 ppm n-hexanal and 1ppm 1-octene-3-ol each, respectively. Sensory evaluation was performed in which the intensity of taste sensed when each of the aqueous solutions is introduced into the mouth is defined as “Intensity of umami” for the aqueous MSG solution, “Intensity of saltiness” for the aqueous NaCl solution and “Intensity of sweetness” for the aqueous sucrose solution. The score of additive-free taste intensity was set to 3.0, and taste intensity upon addition was evaluated as follows. The results are shown in Table 9. • 1.0: Much weaker • 2.0: Weaker • 3.0: Similar • 4.0: Stronger • 5.0: Much stronger

[5] = Sensory evaluation whether sucrose usage can be reduced; settings: 10 ppm added to 1.5% aqueous sucrose solution; for Scores in sensory evaluation (taste intensity, sweetness): 1.5% sucrose solution = 3.0, scale 1.0-5.0
Experimental: as §1
Evaluation was conducted to find whether sucrose usage can be reduced by the taste enhancing effects. To a 1.5% aqueous sucrose solution was added 10 ppm n-hexanal or 10 ppm 1-octen-3-ol. Taste intensity was determined in the sensory evaluation where the taste intensity of the 1.5% sucrose solution was set to 3.0. For comparison, sensory evaluation was also performed for a 2.0% and 1.8% concentration of aqueous sucrose solution. The sensory evaluation was evaluated as follows. The results are shown in Table 6. • 1.0: Much weaker • 2.0: Weaker • 3.0: Similar • 4.0: Stronger • 5.0: Much stronger

[6] = Sensory evaluation, intensity of umami in aqueous MSG solution; settings: additive-free = 3.0
Experimental: as §1, §2, §3, §4

[7] = Sensory evaluation, intensity of sweetness in aqueous sucrose solution; settings: additive-free = 3.0
Experimental: as §1, §2, §3, §4

[8] = as above; settings: additive-free = 3.0, scale 1.0-5.0
[9] = Sensory evaluation, intensity of sweetness in whipped cream; settings: 100 ppm in whipped cream; aldehyde-free = 3.0; scale 1.0-5.0
Experimental: as §1
Sensory evaluation was performed for “Intensity of sweetness”. The score of aldehyde-free taste intensity was set to 3.0, and taste intensity upon addition was evaluated as follows. The results are shown in Table 8. • 1.0: Much weaker • 2.0: Weaker • 3.0: Similar • 4.0: Stronger • 5.0: Much stronger

[10] = Sensory evaluation, intensity of saltiness in diluted soy sauce; settings: 10 ppm in soy sauce diluted to 2% in water; aldehyde-free = 3.0; scale 1.0-5.0
Experimental: as §1
(§5) Sensory evaluation was performed for “Intensity of Umani ” and “ Intensity of Saltiness “. The score of aldehyde-free taste intensity was set to 3.0, and taste intensity upon addition was evaluated as follows. The results are shown in Table 7. • 1.0: Much weaker • 2.0: Weaker • 3.0: Similar • 4.0: Stronger • 5.0: Much stronger

[11] = Sensory evaluation, intensity of umami in diluted soy sauce; settings: 10 ppm in soy sauce diluted to 2% in water; aldehyde-free = 3.0; scale 1.0-5.0
Experimental: as §1, §5

[12] = 1 ppm added to 0.8% NaCl, scale 1.0-5.0
[13] = 10 ppm added to 0.8% NaCl, 1.0 much weaker to 5.0 much stronger
[14] = 1 ppm added to 0.2% MSG, scale 1.0-5.0
[15] = 10 ppm added to 0.2% MSG, 1.0 much weaker to 5.0 much stronger, mean of three individuals, nose clip
[16] = 1 ppm added to 2% sucrose, scale 1.0-5.0
[17] = 10 ppm added to 2% sucrose, 1.0 much weaker to 5.0 much stronger

Structure (SMILES)	Intensity of saltiness, Aqueous NaCl solution ([1]; 0.01 ppm added to 0.8% NaCl)	Intensity of saltiness, Aqueous NaCl solution ([1]; 0.1 ppm added to 0.8% NaCl)	Intensity of saltiness, Aqueous NaCl solution ([1]; 100 ppm added to 0.8% NaCl)	Intensity of saltiness, Aqueous NaCl solution ([1]; 1000 ppm added to 0.8% NaCl)	Concentration of aqueous NaCl solution of similar saltiness intensity [2] [%]	Scores in sensory evaluation (taste intensity, saltiness) [2]	Intensity of umami, Aqueous MSG solution ([3]; 0.01 ppm added to 0.2% MSG)	Intensity of umami, Aqueous MSG solution ([3]; 0.1 ppm added to 0.2% MSG)	Intensity of umami, Aqueous MSG solution ([3]; 100 ppm added to 0.2% MSG)	Intensity of umami, Aqueous MSG solution ([3]; 1000 ppm added to 0.2% MSG)	Intensity of saltiness, Aqueous NaCl solution [4, 12]	Intensity of saltiness, Aqueous NaCl solution [4, 13]	Concentration of aqueous sucrose solution of comparable/similar sweetness intensity [5] [%]	Scores in sensory evaluation (taste intensity, sweetness) [5]	Intensity of umami, Aqueous MSG solution [6, 14]	Intensity of umami, Aqueous MSG solution [6, 15]	Intensity of sweetness, Aqueous sucrose solution [7, 16]	Intensity of sweetness, Aqueous sucrose solution [7, 17]	Intensity of sweetness, Aqueous sucrose solution ([8]; 0.01 ppm added to 2% sucrose)	Intensity of sweetness, Aqueous sucrose solution ([8]; 0.1 ppm added to 2% sucrose)	other results
C=CC(O)CCCCC (centres unmarked) [Example 1-octen-3-ol, 1-octen-3-ol]	3.2	3.5	3.8	3.8	~0.6	3.5	3.2	3.2	3.8	3.8	3.5	3.5	~1.8	3.5	3.5	3.5	3.2	3.5	3.2	3.2	Intensity of sweetness, Aqueous sucrose solution ([8]; 100 ppm added to 2% sucrose): 3.5; Intensity of sweetness, Aqueous sucrose solution ([8]; 1000 ppm added to 2% sucrose): 3.5
CCCCCC=O [n-hexanal]	4.0	4.2	5.0	5.0	~0.8	4.0	4.0	4.2	5.0	5.0	4.3	5.0	~2.0	4.0	4.3	5.0	3.8	4.5	3.8	3.8	Intensity of saltiness, Aqueous NaCl solution ([1]; 0.001 ppm added to 0.8% NaCl): 3.5; Intensity of sweetness [9]: 4.5; Intensity of umami, Aqueous MSG solution ([3]; 0.001 ppm added to 0.2% MSG): 3.5; Intensity of saltiness [10]: 4.5; Intensity of umami [11]: 4.5; Intensity of sweetness, Aqueous sucrose solution ([8]; 0.001 ppm added to 2% sucrose): 3.5; Intensity of sweetness, Aqueous sucrose solution ([8]; 100 ppm added to 2% sucrose): 4.5; Intensity of sweetness, Aqueous sucrose solution ([8]; 1000 ppm added to 2% sucrose): 5.0
